Results from PubChem BioAssay (NCI).
“And” between values parts separate entries of the source, which are not always exact repeats. Equal values may be shown once.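 Interpolation was linear, between the two tested concentrations surrounding the appropriate level; five concentrations were tested over 48 hours in 96-well plates. Abbreviation: GI50, concentration required for 50% inhibition of growth. TGI denotes the concentration required for complete inhibition of growth.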

Experiments:
Test in all cases: NCI tumour cell line growth inhibition, 48 h
HOP-18 NSCLC = tested on: HOP-18 NSCLC
DMS 273 small cell lung = tested on: DMS 273 small cell lung
RXF-631 renal = tested on: RXF-631 renal
DMS 114 small cell lung = tested on: DMS 114 small cell lung
DLD-1 colon = tested on: DLD-1 colon
KM20L2 colon = tested on: KM20L2 colon
SNB-78 CNS = tested on: SNB-78 CNS
XF 498 CNS = tested on: XF 498 CNS
SN12K1 renal = tested on: SN12K1 renal
P388/ADR leukemia = tested on: P388/ADR leukemia
P388 leukemia = tested on: P388 leukemia

Structure (SMILES) | TGI (HOP-18 NSCLC) | TGI (DMS 273 small cell lung) | TGI (RXF-631 renal) [µM] | TGI (DMS 114 small cell lung) | TGI (DLD-1 colon) | TGI (KM20L2 colon) | TGI (SNB-78 CNS) | TGI (XF 498 CNS) | GI50 (HOP-18 NSCLC) | GI50 (DMS 273 small cell lung) [µM] | GI50 (SN12K1 renal) [µM] | TGI (SN12K1 renal) | GI50 (DLD-1 colon) [µM] | GI50 (KM20L2 colon) | GI50 (P388/ADR leukemia) [µM] | TGI (P388/ADR leukemia) | GI50 (SNB-78 CNS) [µM] | GI50 (P388 leukemia) [µM] | TGI (P388 leukemia) | GI50 (XF 498 CNS) [µM]
[O-]/[N+](=C\c1ccccc1)[C@H](COCc1ccccc1)c1ccccc1 | 90.4 µM | > 100 µM | > 100 | > 100 µM | > 100 µM | > 100 µM | > 100 µM | > 100 µM | – | – | – | – | – | – | – | – | – | – | – | –
CCC1(O)CC(OC2CC(N(C)C)C(OC3CC4OC5CC(=O)C(C)OC5OC4C(C)O3)C(C)O2)c2c(cc3c(c2O)C(=O)c2c(O)ccc(O)c2C3=O)C1C(=O)OC (stereo not given) | 0.0821 µM and 0.0764 µM | 0.0342 µM and 0.0217 µM | – | 0.0431 µM and 0.0473 µM | 0.69 µM and 0.13 µM | 0.356 µM and 0.0462 µM and 0.0889 µM | 0.854 µM and 0.536 µM | 0.0199 µM and 0.0103 µM | 0.00875 µM and 0.0163 µM | 0.0075 | 0.00862 | 0.0369 µM and 0.0325 µM | 0.00984 | 0.00351 µM and 0.0075 µM | 0.0075 | 0.008 µM and < 0.0451 µM | 0.0126 | 0.0075 | 0.00422 µM and 0.00817 µM | 0.00256
O=C(CSc1nnc(-c2ccc(N=Cc3ccc(Cl)cc3)cc2)o1)Nc1ccccc1Cl | > 100 µM | > 100 µM | – | > 100 µM | – | > 100 µM | > 100 µM | > 100 µM | – | – | – | – | – | – | – | – | – | – | – | –
CC(=O)OCC1OC(Nc2[nH]c(=O)n(C)c(=O)c2-c2csc(N)n2)C(OC(C)=O)C(OC(C)=O)C1OC(C)=O (stereo not given) | > 100 µM | – | > 100 | > 100 µM | > 100 µM | > 100 µM | > 100 µM | – | – | – | – | – | – | – | – | – | – | – | – | –
Cc1ccc(S(=O)(=O)N/N=C/c2oc(-c3cccc([N+](=O)[O-])c3)c(-c3cccc([N+](=O)[O-])c3)c2[N+](=O)[O-])cc1 | > 100 µM | – | > 100 | – | > 100 µM | > 100 µM | – | > 100 µM | – | – | – | – | – | – | – | – | – | – | – | –
C1OCC2S[C@@H]3COCO[C@@H]3C2O1 (stereo not given in full) | – | > 100 µM | – | > 100 µM | > 100 µM | > 100 µM | > 100 µM | > 100 µM | – | – | – | – | – | – | – | – | – | – | – | –
COc1ccc(/C=C2\CN(C)Cc3c2nc(N)nc3-c2ccc(OC)cc2)cc1 | – | > 100 µM | – | > 100 µM | > 100 µM | > 100 µM | > 100 µM | > 100 µM | – | – | – | – | – | – | – | – | – | – | – | –
CN(C)CC(/C(Cc1ccccc1)=N\NC(=O)C[n+]1ccccc1)c1ccccc1 (stereo not given) | > 100 µM | > 100 µM | > 100 | > 100 µM | – | > 100 µM | > 100 µM | > 100 µM | – | – | – | – | – | – | – | – | – | – | – | –
Cc1c2cc[nH]c(C(F)(F)F)c2cc2c1nc1ccccc12 | – | > 125 µM | – | > 125 µM | > 125 µM | > 125 µM | > 125 µM | > 19.8 µM | – | – | – | > 125 µM | – | – | – | > 70.3 µM | – | – | > 125 µM | –
O=C(O)CCCl | > 5000 µM | > 5000 µM | – | – | > 5000 µM | – | > 5000 µM | – | – | – | – | – | – | – | – | – | – | – | – | –
COc1ccc(Cn2c(C)nc3c2C(=O)c2ccccc2C3=O)cc1 | – | 19.7 µM | – | – | > 75 µM | > 75 µM | > 75 µM | 27.1 µM | – | – | – | – | – | – | – | – | – | – | – | –
CCOc1ccc2nc(NC(=O)C(=O)C(C(=O)c3ccccc3-c3ccccc3)C3OC(=O)c4ccccc43)sc2c1 (stereo not given) | – | > 100 µM | – | 35 µM | > 100 µM | 54.6 µM | > 100 µM | 49.1 µM | – | – | – | – | – | – | – | – | – | – | – | –
C=C1C(=O)OC2/C=C(\C)C(OC(C)=O)C3OC3C(C)(O)CC(OC(=O)/C(C)=C/C)C12 (stereo not given) | 23.5 µM | 60 µM | – | 20 µM | – | 15.2 µM | 30.5 µM | 18.2 µM | – | – | – | – | – | – | – | – | – | – | – | –
C1=C(c2ccccc2)CN(c2ccccc2)OC1 | 69.3 µM | > 100 µM | – | – | > 100 µM | > 100 µM | > 100 µM | > 100 µM | – | – | – | – | – | – | – | – | – | – | – | –
O=C(Nc1c(O)[nH]c(=S)[nH]c1=O)c1ccccn1 | > 100 µM | – | > 100 | > 100 µM | > 100 µM | > 100 µM | > 100 µM | – | – | – | – | – | – | – | – | – | – | – | – | –
